The values below come from US10077293B2, “Antimicrobial peptide analogues derived from abalone (Haliotis discus) and antimicrobial pharmaceutical composition containing the same” (priority 2016, dated 2018).

The test system of experiment [1] is C. albicans. The experiment is described as follows: Ultrasensitive radial diffusion assay (URDA), antimicrobial activity. The class given is cell-based, Candida albicans. On the procedure:
(§1) Four species of Gram positive bacteria (Bacillus subtilis, Staphylococcus epidermidis, […] and Propionibacterium acnes), five species of Gram negative bacteria (E. coli D31, E. coli ML35p, Shigella flexneri, Pseudomonas aeruginosa and Vibrio parahaemolyticus) and one yeast species (Candida albicans) were used for experiments. The antimicrobial activity was measured by ultrasensitive radial diffusion assay (URDA) using two layers of media of different concentrations. First, the microorganisms were pre-cultured in each medium for 18 hours and the concentration of the microorganisms was adjusted to 84% T (≈1×10^8 CFU/mL) using a colorimeter (Product No. 52-1210, BioMerieux, Inc., USA). Then, 0.5 mL of the diluted microorganism solution was added to an underlay gel containing 9.5 mL of 0.03% TSB, 1% type I agarose and 10 mM phosphate buffer (PB; pH 6.5) and plated and solidified on a plate after mixing well. After boring a well with a diameter of 2.5 mm on the solidified plate using a punch, 5 μL of each analogue solution was introduced. All the analogues were dissolved in 5 μL of 0.01% acetic acid to avoid any effect of solvent. After the analogue permeated into the medium, the microorganisms were cultured for 3 hours and an overlay gel containing 10 mL of 6% TSB, 1% type I agarose and 10 mM phosphate buffer (pH 6.5) was poured and solidified. Then, the microorganisms were cultured again for 18 hours at the same temperature. Next day, the antimicrobial activity was determined by measuring the size (diameter) of a clear zone formed around the well. Piscidin 1, an antimicrobial peptide derived from the mast cells of a hybrid striped bass, was used as a control.

The test system of experiment [2] is E. coli ML35p. Put plainly: Killing kinetics study. Format: cell-based. As to the method: For killing kinetics study of the analogues whose bactericidal process was identified, killing rate for each analogue was investigated at 1×MIC and 5×MIC for 60 minutes. For this, the analogue was added to an e-tube containing 10^6 CFU/mL of E. coli ML35p. While incubating at 37° C., 10 μL of the solution was taken from the tube at predetermined times (5, 10, 20, 30, 40, 50 and 60 minutes after the addition of the analogue) and plated on a TSA plate. Then, the number of formed colonies was counted. As control groups, no analogue or piscidin 1 was added. The killing % for the analogues was represented as the number of formed colonies relative to that when no analogue was added.

The test system of experiment [3] is E. coli ML35p. Put plainly: Chromogenic bacteriolytic plate assay. Format: cell-based. Particulars: E. coli ML35p (FIG. 6). As to the method:
In order to investigate the lytic activity of the analogues for bacterial membrane, chromogenic bacteriolytic plate assay was conducted using E. coli ML35p containing a chromosomal IPTG-inducible β-galactosidase gene (Mardones, G., Venegas, A. Chromogenic plate assay distinguishing bacteriolytic from bacteriostatic activity of an antibiotic agent. J Microbiol Methods. 2000, 40(3), 199-206). After inoculating 2 mL of E. coli ML35p to TSB and culturing at 37° C. for 16-18 hours, a mixture of 50 μL of the cultured microorganism solution, 10 μL of 1 mM IPTG and 50 μL of 50 mg/mL X-gal was poured onto TSB containing 0.8% agarose at 42° C. the next day. After boring a well on the solidified plate, 5 μL of each peptide analogue solution was introduced and incubation was conducted for 3 hours. Then, after pouring 2×TSB containing 10 mL of 1.5% agarose to the plate and solidifying, incubation was conducted again for 16-18 hours. After the incubation, the size (diameter) of a clearing zone and the presence or absence of a blue line at the edge portion were investigated.

Experiment [4] relates to P. aeruginosa KCTC2004. The experiment is described as follows: Ultrasensitive radial diffusion assay (URDA), antimicrobial activity. Format: cell-based, Pseudomonas aeruginosa. The following applies: P. aeruginosa KCTC2004, Gram −. As to the method:
as §1

The subject of experiment [5] is Vibrio parahaemolyticus KCCM42264. The description is as above. The class given is cell-based. On the procedure:
as §1

Experiment [6] concerns Shigella flexneri KCTC2009. Described as above. Format: cell-based. The following applies: Shigella flexneri KCTC2009, Gram −. On the procedure:
as §1

Experiment [7] has as its system E. coli D31. The experiment is described as above. Particulars: E. coli D31, Gram −. Format: cell-based. On the procedure: as §1
The subject of experiment [8] is E. coli ML35p. The description is as above. The following applies: Gram −. The class given is cell-based. As to the method: as §1
Experiment [9] has as its system S. mutans KCCM40105. The experiment is described as above. Format: cell-based, Streptococcus mutans. The following applies: S. mutans KCCM40105, Gram +. On the procedure: as §1
Experiment [10] relates to B. subtilis KCTC1021. Described as above. The class given is cell-based, Bacillus subtilis. Particulars: B. subtilis KCTC1021, Gram +. As to the method:
as §1

The test system of experiment [11] is Gram positive and Gram negative bacteria. Particulars: background statement; cited from earlier work.
Experiment [12] relates to C. albicans. The following applies: parent peptide, background statement; cited from earlier work.

Entries after “also recorded” stand apart in the source; their conditions may differ. Ends that are not written are not given here.

As to “FFHHIFRGIVHVGKTIHRLVTG-NH2 [Piscidin 1, reference compound]”, the Minimal effective concentration in [1] (C. albicans KCCM42264 (as printed in Table 2), yeast) was greater than 62.5 µg/mL; in experiment [1] (C. albicans KCTC7965, yeast), greater than 62.5 µg/mL; in experiment [4], 8.0 µg/mL; in experiment [5] it was 3.0 µg/mL; in [6], 8.0 µg/mL; in experiment [7] it was 3.8 µg/mL. The values for the Minimal effective concentration in experiment [8], in [9] and in experiment [10] were 2.3 µg/mL, 3.2 µg/mL and 7.5 µg/mL, respectively. The “time to kill E. coli ML35p” value in [2] (1×MIC) is no more than 20 min; in [2] (5×MIC), no more than 5 min. In experiment [3], the “bacteriolytic activity: blue line at the edge portion of the clearing zone” value is reported as “showed an edge line”.
For “hdMolluscidin (AATKPKKAGAEAAPKKPAKKQTKKKPAKKAGGKKKPKRAGAKKAKK; listed as Haliotis discus) [antimicrobial peptide consisting of 46 amino acids, purified from the gill of abalone (Haliotis discus); parent peptide]”, in [11], the “antimicrobial activity against Gram positive and Gram negative bacteria (in words)” value is recorded as “strong antimicrobial activity”. The “antimicrobial activity against C. albicans (in words)” value in experiment [12] is “little antimicrobial activity; also recorded: no activity”.
